Assay results published in PubChem BioAssay AID248 (DTP/NCI, 2004).
Where “and” joins values, the source holds several entries; their conditions need not be identical. Equal entries are not always repeated. Toxic doses and inconclusive results are not listed.

Test system: L1210 leukemia ip in BDF1 mice, survival T/C
Experiment: NCI In Vivo Anticancer Drug Screen. Data for tumor model L1210 Leukemia (intraperitoneal) in B6D2F1 (BDF1) mice
Settings: endpoint: mean survival time, higher = longer survival
Outline: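 Survival endpoint. Drug-treated group vs vehicle group, expressed as T divided by C. Tumor passaged by transplantation.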

[1] = dose: 100.0 mg/kg/injection, schedule: Q01DX009 (ip), vehicle: Klucel (hydroxypropylcellulose) (HPC)
[2] = dose: 200.0 mg/kg/injection, schedule: Q01DX009 (ip), vehicle: Klucel (hydroxypropylcellulose) (HPC)
[3] = dose: 400.0 mg/kg/injection, schedule: Q01DX009 (ip), vehicle: Klucel (hydroxypropylcellulose) (HPC)
[4] = dose: 100.0 mg/kg/injection, schedule: Q01DX001 (ip), vehicle: carboxymethylcellulose (CMC)
[5] = dose: 200.0 mg/kg/injection, schedule: Q01DX001 (ip), vehicle: carboxymethylcellulose (CMC)
[6] = dose: 400.0 mg/kg/injection, schedule: Q01DX001 (ip), vehicle: carboxymethylcellulose (CMC)
[7] = dose: 100.0 mg/kg/injection, schedule: Q04DX003 (ip), vehicle: saline
[8] = dose: 200.0 mg/kg/injection, schedule: Q04DX003 (ip), vehicle: saline
[9] = dose: 100.0 mg/kg/injection, schedule: Q04DX003 (ip), vehicle: Klucel (hydroxypropylcellulose) (HPC)
[10] = dose: 200.0 mg/kg/injection, schedule: Q04DX003 (ip), vehicle: Klucel (hydroxypropylcellulose) (HPC)
[11] = dose: 400.0 mg/kg/injection, schedule: Q04DX003 (ip), vehicle: Klucel (hydroxypropylcellulose) (HPC)
[12] = dose: 100.0 mg/kg/injection, schedule: Q04DX002 (ip), vehicle: saline with Tween-80
[13] = dose: 200.0 mg/kg/injection, schedule: Q04DX002 (ip), vehicle: saline with Tween-80
[14] = dose: 400.0 mg/kg/injection, schedule: Q04DX002 (ip), vehicle: saline with Tween-80
[15] = dose: 100.0 mg/kg/injection, schedule: Q01DX009 (ip), vehicle: saline with Tween-80
[16] = dose: 200.0 mg/kg/injection, schedule: Q01DX009 (ip), vehicle: saline with Tween-80
[17] = dose: 400.0 mg/kg/injection, schedule: Q01DX009 (ip), vehicle: saline with Tween-80

CC(=O)Oc1c(Br)c(-c2c(C)c(Br)c(C)c(Br)c2C)c(OC(C)=O)c(Br)c1-c1c(C)c(Br)c(C)c(Br)c1C
T/C [1]: 95 % of control | T/C [2]: 100 % of control | T/C [3]: 95 % of control

COc1ccc2[nH]c3c(c(=O)c2c1)CCCC3
T/C (dose: 50.0 mg/kg/injection, schedule: Q01DX001 (ip), vehicle: carboxymethylcellulose (CMC)): 101 % of control | T/C [4]: 95 % of control | T/C [5]: 100 % of control | T/C [6]: 97 % of control

O=C(N/N=C/c1cccc2ccccc12)c1cccnc1
T/C [1]: 101 % of control

C(=N\N1CCN(/N=C/c2cccc(OCc3ccccc3)c2)CC1)/c1cccc(OCc2ccccc2)c1
T/C (dose: 100.0 mg/kg/injection, schedule: Q01DX001 (ip), vehicle: saline): 96 % of control | T/C (dose: 200.0 mg/kg/injection, schedule: Q01DX001 (ip), vehicle: saline): 87 % of control | T/C (dose: 400.0 mg/kg/injection, schedule: Q01DX001 (ip), vehicle: saline): 90 % of control

O=NN(CCCl)C(=O)Nc1ccc(CC(=O)O)cc1
T/C (dose: 8.0 mg/kg/injection, schedule: Q01DX001 (ip), vehicle: carboxymethylcellulose (CMC)): 154 % of control | T/C (dose: 12.0 mg/kg/injection, schedule: Q01DX001 (ip), vehicle: carboxymethylcellulose (CMC)): 189 % of control | T/C (dose: 18.0 mg/kg/injection, schedule: Q01DX001 (ip), vehicle: carboxymethylcellulose (CMC)): 226 % of control | T/C (dose: 26.0 mg/kg/injection, schedule: Q01DX001 (ip), vehicle: carboxymethylcellulose (CMC)): 236 % of control

CCOC(=O)C(Cc1c[nH]c2ccccc12)[N+](=O)[O-] (stereo unspecified)
T/C (dose: 100.0 mg/kg/injection, schedule: Q04DX003 (sc), vehicle: olive oil, sesame oil, peanut oil): 97 % of control | T/C (dose: 200.0 mg/kg/injection, schedule: Q04DX003 (sc), vehicle: olive oil, sesame oil, peanut oil): 98 % of control | T/C (dose: 400.0 mg/kg/injection, schedule: Q04DX003 (sc), vehicle: olive oil, sesame oil, peanut oil): 101 % of control

O=C(O)c1ccccc1C(=O)OC1CC2CCC1CC2 (stereo unspecified)
T/C (dose: 100.0 mg/kg/injection, schedule: Q01DX001 (ip), vehicle: saline with Tween-80): 98 % of control | T/C (dose: 200.0 mg/kg/injection, schedule: Q01DX001 (ip), vehicle: saline with Tween-80): 104 % of control | T/C (dose: 400.0 mg/kg/injection, schedule: Q01DX001 (ip), vehicle: saline with Tween-80): 100 % of control

O=C1NCCc2c1[nH]c1ccccc21
T/C (dose: 50.0 mg/kg/injection, schedule: Q01DX009 (ip), vehicle: saline): 90 % of control | T/C (dose: 100.0 mg/kg/injection, schedule: Q01DX009 (ip), vehicle: saline): 91 % of control | T/C [7]: 101 % of control | T/C (dose: 200.0 mg/kg/injection, schedule: Q01DX009 (ip), vehicle: saline): 86 % of control | T/C [8]: 93 % of control

CNC(=O)NS(=O)(=O)c1ccc([N+](=O)[O-])cc1
T/C [4]: 95 % of control | T/C [5]: 91 % of control | T/C [6]: 92 % of control

c1ccc(-c2csc(NNc3nc(-c4ccccc4)cs3)n2)cc1
T/C [9]: 95 % of control | T/C [10]: 90 % of control | T/C [11]: 112 % of control

O=C1c2cscc2C(O)c2c(Cl)sc(Cl)c21 (stereo unspecified)
T/C [12]: 101 % of control | T/C [13]: 97 % of control | T/C [14]: 89 % of control

N#CCC(=O)N/N=C/c1ccccc1
T/C [12]: 97 % of control | T/C [13]: 101 % of control | T/C [14]: 101 % of control

Cc1ccc(S(=O)(=O)NC(CSSCC(NS(=O)(=O)c2ccc(C)cc2)C(=O)OC(C)(C)C)C(=O)OC(C)(C)C)cc1 (stereo unspecified)
T/C [1]: 101 % of control | T/C [9]: 98 % of control | T/C [2]: 106 % of control | T/C [10]: 101 % of control | T/C [3]: 95 % of control | T/C [11]: 98 % of control

CCOC(=O)c1ccc(NS(=O)(=O)c2ccc(Cl)cc2[N+](=O)[O-])cc1
T/C [4]: 99 % of control | T/C (dose: 100.0 mg/kg/injection, schedule: Q01DX009 (ip), vehicle: carboxymethylcellulose (CMC)): 112 % of control and 88 % of control | T/C (dose: 100.0 mg/kg/injection, schedule: Q04DX002 (ip), vehicle: carboxymethylcellulose (CMC)): 96 % of control and 90 % of control | T/C (dose: 100.0 mg/kg/injection, schedule: Q04DX003 (ip), vehicle: carboxymethylcellulose (CMC)): 105 % of control | T/C [5]: 101 % of control | T/C (dose: 200.0 mg/kg/injection, schedule: Q01DX009 (ip), vehicle: carboxymethylcellulose (CMC)): 88 % of control and 89 % of control | T/C (dose: 200.0 mg/kg/injection, schedule: Q04DX002 (ip), vehicle: carboxymethylcellulose (CMC)): 93 % of control and 91 % of control | T/C (dose: 200.0 mg/kg/injection, schedule: Q04DX003 (ip), vehicle: carboxymethylcellulose (CMC)): 102 % of control | T/C [6]: 103 % of control | T/C (dose: 400.0 mg/kg/injection, schedule: Q01DX009 (ip), vehicle: carboxymethylcellulose (CMC)): 88 % of control and 91 % of control | T/C (dose: 400.0 mg/kg/injection, schedule: Q04DX002 (ip), vehicle: carboxymethylcellulose (CMC)): 93 % of control | T/C (dose: 400.0 mg/kg/injection, schedule: Q04DX003 (ip), vehicle: carboxymethylcellulose (CMC)): 93 % of control

COC(=O)C1=C(C(=O)OC)C2CCC1C2
T/C (dose: 100.0 mg/kg/injection, schedule: Q01DX009 (ip), vehicle: other): 103 % of control | T/C (dose: 200.0 mg/kg/injection, schedule: Q01DX009 (ip), vehicle: other): 103 % of control | T/C (dose: 400.0 mg/kg/injection, schedule: Q01DX009 (ip), vehicle: other): 98 % of control

CCN(CC)CCOc1cc(C)c2cc(Cc3ccccc3)ccc2n1
T/C (dose: 100.0 mg/kg/injection, schedule: Q01DX001 (ip), vehicle: other): 104 % of control | T/C (dose: 200.0 mg/kg/injection, schedule: Q01DX001 (ip), vehicle: other): 96 % of control

CC(=O)OC1(C2(OC(C)=O)C=CC(=NS(=O)(=O)c3ccccc3)C=C2)C=CC(=NS(=O)(=O)c2ccccc2)C=C1 (stereo unspecified)
T/C [15]: 100 % of control | T/C (dose: 100.0 mg/kg/injection, schedule: Q04DX003 (ip), vehicle: saline with Tween-80): 94 % of control | T/C [16]: 93 % of control | T/C (dose: 200.0 mg/kg/injection, schedule: Q04DX003 (ip), vehicle: saline with Tween-80): 90 % of control | T/C [17]: 97 % of control | T/C (dose: 400.0 mg/kg/injection, schedule: Q04DX003 (ip), vehicle: saline with Tween-80): 87 % of control

CCOc1ccc(NC(=S)N=Nc2c(O)[nH]c3c(Cl)cc(Cl)cc23)cc1
T/C [7]: 91 % of control | T/C [8]: 89 % of control | T/C (dose: 400.0 mg/kg/injection, schedule: Q04DX003 (ip), vehicle: saline): 89 % of control

COc1cc(N)c2c(c1N)C(=O)c1ccccc1C2=O
T/C [1]: 96 % of control | T/C [9]: 98 % of control | T/C [2]: 104 % of control | T/C [10]: 90 % of control | T/C [3]: 100 % of control | T/C [11]: 100 % of control

CCC1(CC)COC(C)(C(=O)O)OC1
T/C [15]: 96 % of control and 95 % of control | T/C [16]: 89 % of control and 101 % of control | T/C [17]: 90 % of control

Nc1ccc(C(=O)O)c(O)c1.Nc1ccc(C(=O)O)c(O)c1.[Na+].[O]=[V]
T/C (dose: 2.0 mg/kg/injection, schedule: Q01DX015 (ip), vehicle: carboxymethylcellulose (CMC)): 98 % of control | T/C (dose: 4.0 mg/kg/injection, schedule: Q01DX015 (ip), vehicle: carboxymethylcellulose (CMC)): 93 % of control | T/C (dose: 8.0 mg/kg/injection, schedule: Q01DX015 (ip), vehicle: carboxymethylcellulose (CMC)): 100 % of control | T/C (dose: 16.0 mg/kg/injection, schedule: Q01DX015 (ip), vehicle: carboxymethylcellulose (CMC)): 110 % of control and 113 % of control | T/C (dose: 32.0 mg/kg/injection, schedule: Q01DX015 (ip), vehicle: carboxymethylcellulose (CMC)): 101 % of control

O=S(=O)(c1ccc(Nc2nnc(-c3ccccc3)s2)cc1)N1CCCCC1
T/C [1]: 96 % of control | T/C [2]: 89 % of control | T/C [3]: 86 % of control

CCCCC1=Cc2cc3c(cc2C1N(C)C)OCO3 (stereo unspecified)
T/C (dose: 6.25 mg/kg/injection, schedule: Q04DX002 (ip), vehicle: Klucel (hydroxypropylcellulose) (HPC)): 102 % of control | T/C (dose: 12.5 mg/kg/injection, schedule: Q04DX002 (ip), vehicle: Klucel (hydroxypropylcellulose) (HPC)): 99 % of control | T/C (dose: 25.0 mg/kg/injection, schedule: Q04DX002 (ip), vehicle: Klucel (hydroxypropylcellulose) (HPC)): 95 % of control and 105 % of control | T/C (dose: 100.0 mg/kg/injection, schedule: Q04DX002 (ip), vehicle: Klucel (hydroxypropylcellulose) (HPC)): 92 % of control
